Series [1] concerns Drosophila melanogaster wing cells. The series is described as follows: Somatic mutation and recombination test (SMART), wing spot test. The class given is in vivo. Here is the method:
The basic procedures for the D. melanogaster somatic mutation and recombination test (SMART) were performed according to Graf and co-workers. Two D. melanogaster strains (kindly provided by Dr. H. Frei, Zurich, Switzerland) were used in the present study: virgin females from the strain ORR/ORR; flr^3/ In (3LR) TM3, ri p^p sep l(3)89Aa bx^34e e Bd^S were mated with mwh/mwh males. The ORR strain has chromosomes 1 and 2 from a DDT-resistant Oregon line, which are characterized by constitutively over-expressed CYP450 genes. The CYP 450 enzymes play the main role in the bioactivation of xenobiotics, as well as natural products including phytochemicals. Thus, the use of this high-bioactivation strain of D. melanogaster facilitates the detection of promutagens of numerous classes of compounds. The markers mwh (multiple wing hairs) and flr^3 (misshapen, flare-like hairs) are recessive wing-hair mutations located on the third chromosome at 0.3 and 38.8 respectively.
Eggs from the crosses were collected over 10 h periods. Progeny were raised on the Instant Drosophila Medium (Sigma Chemical Co., St. Louis, MO, USA) at 25 °C. Two schedules of the larvae treatment were applied. Firstly, the crossed flies were permitted to lay eggs for 10 h in vials containing medium prepared with 5,8-DHC solution. Thus, the exposure duration was about 120 h (i.e., evolutionary period from fly egg till case-worm). According to the second schedule, the 72 ± 5 h-old larvae were exposed to 5,8-DHC by adding test solution to the surface of the medium and were fed on this medium for the rest of their development, during approximately 48 h. 5,8-DHC was dissolved in ethanol and then diluted with distilled water to the desired concentration, with the final ethanol concentration 5% v/v. The solutions were always prepared immediately before use. Solvent controls were included in all treatments. Methyl methanesulfonate was included in the assay as a positive control. Trans-heterozygous (mwh flr^+ / mwh^+ flr^3) flies were collected and stored in a 70% ethanol. The wings of adult flies were mounted on glass slides in Faure’s solution, coded and scored at 400× magnification (Nikon E200) for the presence of single (mwh or flr^3 phenotype) or twin (adjacent mwh and flr^3 clones) spots. The spots were recorded according to standard procedures. No less than 40 wings were analysed per each experimental point. Two repeated experiments were carried out.

The test system of series [2] is Wistar rat bone marrow cells. The series is described as follows: Chromosome aberration in vivo assay in rat bone marrow. From the text:
Male albino Wistar rats aged 8–10 weeks and having body weight of 200–220 g, were used in the present study. The animals were supplied by the Animal Facility of the Department of Immunology, State Research Institute Center for Innovative Medicine. Ethical approval was given by the Committee of the Lithuanian Animal Care and Use. Prior to the start of the study, the animals were acclimatized for 7 days. They were housed under conditions of constant temperature, humidity and a light/dark cycle of 12 h/12 h with free access to standard commercial pellet diet and drinking water. The animals were randomly distributed into 11 experimental groups of six rats each.
We used a mixture of dimethylsulfoxide (DMSO) and sunflower oil (1:2) as the vehicle for 5,8-DHC (5,8-DHC was dissolved in DMSO and adjusted to the desired dose with sunflower oil immediately before administration). For the acute treatment, the animals received single intraperitoneal (i.p.) injections of 10 or 20 mg/kg of 5,8-DHC in 1 mL volume per 100 g body weight (b.w.). The negative control group comprised animals, given a single i.p. injection of vehicle (1 mL/100 g b.w.) and the positive control group, given cyclophosphamide (CP, 30 mg/kg adjusted in 0.5 mL/100 g b.w. in sterile physiological saline). A commercial form of cyclophosphamide was used (‘Endoxan’, ASTA Medica AG, Frankfurt, Germany). Blank controls comprised untreated animals. For the repeated treatment, 5,8-DHC (10 or 20 mg/kg) or vehicle was administered via gavage (1 mL/100 g b.w.) once a day for 3 consecutive days. Animals were sacrificed 24 h or 48 h after the last dose administration. Colchicine was applied i.p. at a dose of 2 mg/kg b.w. in 1 mL volume 90 min before sacrifice. Both femurs were dissected from each animal and used to obtain bone marrow preparations for the analysis of chromosome aberrations and micronucleus.
Bone marrow cells were flushed from the femora with 0.55% potassium chloride hypotonic solution, incubated for 25 min at 37 °C and then centrifuged at 150 × g for 8 min. Cells were fixed in methanol-glacial acetic acid (3:1). Slides were prepared by a flame-drying procedure and then stained with 5% Giemsa stain. Slides were coded and scored blind by the single scorer at a magnification of 1500× (Nikon ECLIPSE E200, Tokyo, Japan). Only well-spread metaphases with 42 ± 1 chromosomes were used for the analysis. The frequencies of CAs were estimated in 100 metaphases per animal. Aberrations were recorded as individual types according to J.R. Savage’s classification but for convenience were grouped as chromatid breaks (ctb), chromatid exchanges (cte), chromosome breaks (csb) and chromosome exchanges (cse). Gaps were counted but not included into statistical analysis.

Series [3] is described as follows: DPPH• radical scavenging assay. To be noted: 16 min reaction. How it is done: Radical scavenging activity of extracts against stable DPPH^• (2,2-diphenyl-[…] hydrate, Sigma-Aldrich Chemie, Steinheim, Germany) was determined spectrophotometrically by using slightly modified method of Brand-Williams et al. (1995). 5,8-DHC was dissolved in methanol at 0.0025, 0.005, 0.010 and 0.025% concentrations before reaction. A 2 mL aliquot of DPPH^• solution in methanol (6 × 10^−5 M) was mixed with a 50 μL of 5,8-DHC solution in 1 cm path length quartz cuvette. The decreasing absorbance at 515 nm was recorded on a UV spectrophotometer Spectronic Genesys 8 (Spectronic Instruments, Rochester, NY, USA) during 16 min reaction time at 1 min intervals until the absorbance curve reached the plateau. The same amount of methanol and DPPH^• solution was used as a blank. The experiments were carried out in triplicate.
In general terms: The DPPH test is a chemical assay of radical scavenging.

[4] abbreviates: test solution 0.1%, exposure duration 48 h.
[5] abbreviates: test solution 0.1%, exposure duration 120 h.
Where [6] appears, read: test solution 0.25%, exposure duration 48 h.
The mark [7] stands for this setting: test solution 0.25%, exposure duration 120 h.
Setting [8] is: test solution 0.5%, exposure duration 48 h.
Setting [9] is: test solution 0.5%, exposure duration 120 h.

The structures appear in SMILES notation. Marks after values point to notes of the source that are not given here.

For the compound `O=c1ccc2c(O)ccc(O)c2o1` [5,8-DHC, 5,8-Dihydroxycoumarin], in series [1] (0.5% 5,8-DHC, 120 h of treatment), the large single spots stood at 0.10 spots per wing. In addition, in series [1] (48 h treatment), the “increase in the number of somatic mutations” value was “no statistically significant increase”. Further, the “genotoxicity in SMART” value in series [1] (120 h treatment) is “slight genotoxicity”. Besides, the “frequency of twin spots” value in series [1] (range over concentrations) is on record as 0–0.04 spots per wing. Besides, the “Spots/wing (±S.E.M.)” value in series [1] (setting [4]) is 0.27 ± 0.04 spots/wing; in series [1] (setting [5]), 0.25 ± 0.04 ^a spots/wing; in series [1] (setting [6]), 0.22 ± 0.04 spots/wing; in series [1] (setting [7]) it was 0.30 ± 0.04 ^a spots/wing; in series [1] (setting [8]), 0.27 ± 0.04 spots/wing; in series [1] (setting [9]), 0.32 ± 0.04 ^a spots/wing. Besides, the “Wings with spots (% ± S.E.M.)” value was 26.8 ± 4.5% in series [1] (setting [4]); 22.4 ± 4.2% in series [1] (setting [5]); 21.1 ± 4.3% in series [1] (setting [6]); 27.1 ± 4.5^a % in series [1] (setting [7]); 25.0 ± 4.4% in series [1] (setting [8]); 28.9 ± 4.6^a % in series [1] (setting [9]). Moreover, the “increase of CAs compared with vehicle controls” value in series [2] (all 5,8-DHC treated animals) was “No increase of CAs”. Moreover, the “Aberrant metaphases (%± S.E.M.)” value in series [2] (repeated gavage 3 × 10 mg/kg b.w., sacrifice 48 h) was found to be 1.17 ± 0.17%; in series [2] (repeated gavage 3 × 20 mg/kg b.w., sacrifice 48 h) it was 2.43 ± 0.37%; in series [2] (single i.p. 10 mg/kg b.w., sacrifice 24 h), 2.33 ± 0.49%; in series [2] (single i.p. 10 mg/kg b.w., sacrifice 48 h) it was 1.67 ± 0.56%; in series [2] (single i.p. 20 mg/kg b.w., sacrifice 24 h), 1.00 ± 0.36%; in series [2] (single i.p. 20 mg/kg b.w., sacrifice 48 h), 2.60 ± 0.68%. Besides, in series [3], the “IC50 in DPPH• assay” value stood at 0.0185%.

For the origin of these results see article PMC6269819, “Evaluation of the Biological Activity of Naturally Occurring 5,8-Dihydroxycoumarin” (Molecules, 2013).
